In this experiment the target is Telomerase reverse transcriptase (Homo sapiens, UniProt O14746). Put plainly: Inhibitory activity against Telomerase evaluated by TRAP Assay studies.
Telomerase reverse transcriptase, sequence (O14746 whole entry): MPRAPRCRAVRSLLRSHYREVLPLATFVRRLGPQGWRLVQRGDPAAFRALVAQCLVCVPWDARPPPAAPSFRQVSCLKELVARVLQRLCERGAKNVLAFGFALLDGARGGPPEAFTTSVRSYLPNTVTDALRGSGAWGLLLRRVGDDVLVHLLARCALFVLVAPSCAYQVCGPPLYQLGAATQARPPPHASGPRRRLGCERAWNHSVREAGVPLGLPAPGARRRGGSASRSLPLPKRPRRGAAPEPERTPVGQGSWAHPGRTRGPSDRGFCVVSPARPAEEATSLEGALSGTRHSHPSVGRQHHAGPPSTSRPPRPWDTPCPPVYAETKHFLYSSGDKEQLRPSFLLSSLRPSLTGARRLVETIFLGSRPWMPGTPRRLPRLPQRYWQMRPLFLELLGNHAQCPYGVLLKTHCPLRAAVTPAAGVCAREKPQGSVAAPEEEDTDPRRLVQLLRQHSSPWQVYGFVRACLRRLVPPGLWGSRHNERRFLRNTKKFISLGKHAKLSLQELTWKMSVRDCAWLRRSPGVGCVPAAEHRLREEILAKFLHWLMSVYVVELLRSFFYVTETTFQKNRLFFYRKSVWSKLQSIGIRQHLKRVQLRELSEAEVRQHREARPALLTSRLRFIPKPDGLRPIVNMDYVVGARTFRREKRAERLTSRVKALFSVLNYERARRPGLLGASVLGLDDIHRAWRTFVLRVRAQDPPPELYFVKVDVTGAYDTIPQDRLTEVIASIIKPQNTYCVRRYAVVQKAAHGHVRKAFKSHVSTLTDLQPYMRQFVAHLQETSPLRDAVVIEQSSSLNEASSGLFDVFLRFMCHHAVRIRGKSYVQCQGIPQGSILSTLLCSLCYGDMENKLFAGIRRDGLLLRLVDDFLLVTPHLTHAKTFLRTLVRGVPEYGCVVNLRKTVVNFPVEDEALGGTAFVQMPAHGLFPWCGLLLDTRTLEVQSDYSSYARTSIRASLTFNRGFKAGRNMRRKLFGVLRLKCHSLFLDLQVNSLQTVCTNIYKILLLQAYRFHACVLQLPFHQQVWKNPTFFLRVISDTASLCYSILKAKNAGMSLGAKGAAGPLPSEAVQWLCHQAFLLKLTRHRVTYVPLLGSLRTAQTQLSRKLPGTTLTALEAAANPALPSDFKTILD
The term IC50 denotes the point on the concentration scale where inhibition reaches its midpoint. The low end stands for greater potency, the high end for weaker potency. Turning to `O=C(CCN1CCCCCC1)Nc1ccc2c(c1)C(=O)c1ccc(NC(=O)CCN3CCCCCC3)cc1C2=O`, the IC50 stood at 13 µM.

`O=C(CCN1CCCCCCC1)Nc1ccc2c(c1)C(=O)c1ccc(NC(=O)CCN3CCCCCCC3)cc1C2=O`: the concentration for half-maximal inhibition (IC50) is above 50 µM.

Consider `CC1(C)CC2CC(C)(CN2CCC(=O)Nc2ccc3c(c2)C(=O)c2ccc(NC(=O)CCN4CC5(C)CC4CC(C)(C)C5)cc2C3=O)C1`, for which the half-maximal inhibitory concentration (IC50) was above 50 µM.

The values are drawn from ChEMBL document CHEMBL1132462, “Molecular modeling studies on G-quadruplex complexes of telomerase inhibitors: structure-activity relationships” (J Med Chem, 1999).
